≈ marks a conversion by molar mass, not a printed value. Calls of active or inactive are those of the source. No cut-off for these calls is given here.
Legend:
PC-3 [1] = assay: Antiproliferative activity against human PC-3 cells assessed as inhibition of cell growth; assay type: functional, cell-based
MCF7 = assay: Antiproliferative activity against human MCF7 cells assessed as inhibition of cell growth at 50 uM relative to control; assay type: functional
[2] = Cytotoxicity against African green monkey COS7 cells assessed as inhibition of cell growth at 50 uM relative to control; assay type: cell-based; settings: chlorocebus aethiops, COS-7 cells
DU-145 = assay: Antiproliferative activity against human DU-145 cells assessed as inhibition of cell growth at 50 uM relative to control; assay type: functional
PC-3 [3] = assay: Antiproliferative activity against human PC-3 cells assessed as inhibition of cell growth at 50 uM relative to control; assay type: functional
Bel-7402 = assay: Cytotoxicity against human Bel-7402 cells assessed as reduction in cell viability measured after 5 days by MTT assay; assay type: functional, cell-based
[4] = Aqueous solubility of the compound; assay type: physicochemical; settings: buffer

Structure (SMILES) | IC50 (PC-3 [1]) | inhibition at 50 µM (MCF7) | inhibition at 50 µM [2] | inhibition at 50 µM (DU-145) | inhibition at 50 µM (PC-3 [3]) | inhibition (DU-145) | IC50 (Bel-7402) | solubility [4]
COc1cc([C@@H]2c3cc4c(cc3[C@@H](O[C@@H]3O[C@@H]5CO[C@@H](C)O[C@H]5[C@H](O)[C@H]3O)[C@H]3COC(=O)[C@H]23)OCO4)cc(OC)c1O [ETOPOSIDE] | 31.5 µM |  |  |  |  |  |  | 
CCCCCCCCCCCCNC(=O)C1c2cccc(c2)-c2ccc(cc2)OCc2cn(nn2)CCOc2ccc(cc2)CC(=O)N1Cc1ccccc1 (stereo not given) |  | 26.4% | 28.2% | 10.4% | 25.8% |  |  | 
CCCCCCCCCCCCNC(=O)C1c2cccc(c2)-c2ccc(cc2)OCc2cn(nn2)CCCOc2ccc(cc2)CC(=O)N1c1ccc(C(F)(F)F)cc1 (stereo not given) |  | 45.6% | 20.4% | 9.8% | 15.3% |  |  | 
CCCCCCCCCCCCNC(=O)C1c2cccc(c2)-c2ccc(cc2)OCc2cn(nn2)CCCCCOc2ccc(cc2)CC(=O)N1c1ccc(C(F)(F)F)cc1 (stereo not given) |  | 24.9% | 10.2% |  | 22% | inactive |  | 
CC(C)c1ccc(N2C(=O)Cc3ccc(cc3)OCCCn3cc(nn3)COc3cccc(c3)C2C(=O)NC2CCCCC2)cc1 (stereo not given) | 9.7 µM |  |  |  |  |  |  | 
O=C(NC1CCCCC1)C1c2cccc(c2)-c2ccc(cc2)OCc2cn(nn2)CCOc2ccc(cc2)CC(=O)N1Cc1ccccc1 (stereo not given) |  | 15.2% | 9.9% | 11% | 11.6% |  |  | 
CCCCCCCCCCCCNC(=O)C1c2cccc(c2)-c2ccc(cc2)OCc2cn(nn2)CCOc2ccc(cc2)CC(=O)N1c1ccc(F)cc1 (stereo not given) | 13.9 µM | 82.4% | 35% | 93.1% | 68.3% |  |  | 
CC1=C[C@H]2O[C@@H]3C[C@H]4OC(=O)/C=C\C=C\[C@@H]5O[C@@H](O[C@H]5C)[C@H](O)/C(C)=C/C(=O)OC[C@@]2(CC1)[C@]4(C)[C@]31CO1 |  |  |  |  |  |  | 0.35 mg/L (≈ 0.662 µM) | 
CC(C)c1ccc(N2C(=O)Cc3ccc(cc3)OCCCn3cc(nn3)COc3ccc(cc3)-c3cccc(c3)C2C(=O)NC2CCCCC2)cc1 (stereo not given) | 13.8 µM | 58.2% | 48% | 41.9% | 60.8% |  |  | 
CC(C)(C)NC(=O)C1c2cccc(c2)-c2ccc(cc2)OCc2cn(nn2)CCOc2ccc(cc2)CC(=O)N1Cc1ccccc1 (stereo not given) |  | 44.6% | 37.8% | 25.5% | 48.3% |  |  | 
CCCCCCCCCCCCNC(=O)C1c2cccc(c2)-c2ccc(cc2)OCc2cn(nn2)CCOc2ccc(cc2)CC(=O)N1c1ccc(C(C)C)cc1 (stereo not given) |  | 39.2% | 25.6% | 51% | 25.4% |  |  | Insoluble
O=C(NC1CCCCC1)C1c2cccc(c2)-c2ccc(cc2)OCc2cn(nn2)CCCOc2ccc(cc2)CC(=O)N1c1ccc(C(F)(F)F)cc1 (stereo not given) |  | 60.9% | 30.9% | 20.1% | 35.5% |  |  | 
CC(C)c1ccc(N2C(=O)Cc3ccc(cc3)OCCn3cc(nn3)COc3ccc(cc3)-c3cccc(c3)C2C(=O)NC2CCCCC2)cc1 (stereo not given) | 4.6 µM | 81.8% | 37.5% | 93.8% | 90.2% |  |  | 
CC(C)(C)NC(=O)C1c2cccc(c2)-c2ccc(cc2)OCc2cn(nn2)CCCOc2ccc(cc2)CC(=O)N1Cc1ccccc1 (stereo not given) |  | 67.9% | 33.1% |  | 5.5% | inactive |  | 
CCCCCCCCCCCCNC(=O)C1c2cccc(c2)-c2ccc(cc2)OCc2cn(nn2)CCCOc2ccc(cc2)CC(=O)N1c1ccc(C(C)C)cc1 (stereo not given) |  | 31.8% | 9.9% | 21.2% | 30.1% |  |  | Insoluble
O=C(NC1CCCCC1)C1c2cccc(c2)-c2ccc(cc2)OCc2cn(nn2)CCOc2ccc(cc2)CC(=O)N1c1ccc(C(F)(F)F)cc1 (stereo not given) |  | 45.8% | 37.7% | 37.1% | 46.9% |  |  | 
O=C(NC1CCCCC1)C1c2cccc(c2)-c2ccc(cc2)OCc2cn(nn2)CCOc2ccc(cc2)CC(=O)N1c1ccc(F)cc1 (stereo not given) |  | 43.2% | 43.2% | 28.4% | 50.3% |  |  | 
O=C(NC1CCCCC1)C1c2cccc(c2)-c2ccc(cc2)OCc2cn(nn2)CCCCCOc2ccc(cc2)CC(=O)N1c1ccc(C(F)(F)F)cc1 (stereo not given) |  | 53.3% | 45.4% | 48.8% | 46% |  |  | 
CCCCCCCCCCCCNC(=O)C1c2cccc(c2)-c2ccc(cc2)OCc2cn(nn2)CCCCOc2ccc(cc2)CC(=O)N1c1ccc(C(F)(F)F)cc1 (stereo not given) |  | 42.9% | 16.6% | 52.8% | 36.4% |  |  | 
O=C(NC1CCCCC1)C1c2cccc(c2)-c2ccc(cc2)OCc2cn(nn2)CCCCOc2ccc(cc2)CC(=O)N1c1ccc(C(F)(F)F)cc1 (stereo not given) |  | 57.1% | 38.1% | 39% | 48.5% |  |  | 
CCCCCCCCCCCCNC(=O)C1c2cccc(c2)-c2ccc(cc2)OCc2cn(nn2)CCOc2ccc(cc2)CC(=O)N1c1ccc(C(F)(F)F)cc1 (stereo not given) |  | 41.7% | 33.6% | 19.7% | 45.8% |  |  | 

From ChEMBL document CHEMBL4813986, “Multicomponent synthesis and anti-proliferative screening of biaryl triazole-containing cyclophanes” (Bioorg Med Chem Lett, 2021)
